Data as given in article PMC9203742 (Nature Communications, 2022).
Values joined by “and” are separate entries in the source; they are usually repeats but may differ in a detail not shown here. Equal entries are not always repeated.

Columns and labels:
[1] = tested on: HEK293 cells, vector control; experiment: Fura-2 Ca2+ imaging in HEK293 cells transfected with control vector (Vec); type: cell-based; details: single-cell values #1-#20; for Ca2+ response of individual cells (source data Suppl Fig1), Vec: test concentration or dose not given here
mGlu1 A59H/N264H mutant = target: T1, mGlu1 A59H/N264H mutant (Rattus norvegicus, UniProt P23385, A59H/N264H); experiment: Fura-2 Ca2+ imaging in HEK293 cells expressing mGlu1 A59H/N264H; type: cell-based
T1 construct: expressed in transfected cells; host or cells: HEK293
T1 sequence (P23385 19-1199 A59H/N264H): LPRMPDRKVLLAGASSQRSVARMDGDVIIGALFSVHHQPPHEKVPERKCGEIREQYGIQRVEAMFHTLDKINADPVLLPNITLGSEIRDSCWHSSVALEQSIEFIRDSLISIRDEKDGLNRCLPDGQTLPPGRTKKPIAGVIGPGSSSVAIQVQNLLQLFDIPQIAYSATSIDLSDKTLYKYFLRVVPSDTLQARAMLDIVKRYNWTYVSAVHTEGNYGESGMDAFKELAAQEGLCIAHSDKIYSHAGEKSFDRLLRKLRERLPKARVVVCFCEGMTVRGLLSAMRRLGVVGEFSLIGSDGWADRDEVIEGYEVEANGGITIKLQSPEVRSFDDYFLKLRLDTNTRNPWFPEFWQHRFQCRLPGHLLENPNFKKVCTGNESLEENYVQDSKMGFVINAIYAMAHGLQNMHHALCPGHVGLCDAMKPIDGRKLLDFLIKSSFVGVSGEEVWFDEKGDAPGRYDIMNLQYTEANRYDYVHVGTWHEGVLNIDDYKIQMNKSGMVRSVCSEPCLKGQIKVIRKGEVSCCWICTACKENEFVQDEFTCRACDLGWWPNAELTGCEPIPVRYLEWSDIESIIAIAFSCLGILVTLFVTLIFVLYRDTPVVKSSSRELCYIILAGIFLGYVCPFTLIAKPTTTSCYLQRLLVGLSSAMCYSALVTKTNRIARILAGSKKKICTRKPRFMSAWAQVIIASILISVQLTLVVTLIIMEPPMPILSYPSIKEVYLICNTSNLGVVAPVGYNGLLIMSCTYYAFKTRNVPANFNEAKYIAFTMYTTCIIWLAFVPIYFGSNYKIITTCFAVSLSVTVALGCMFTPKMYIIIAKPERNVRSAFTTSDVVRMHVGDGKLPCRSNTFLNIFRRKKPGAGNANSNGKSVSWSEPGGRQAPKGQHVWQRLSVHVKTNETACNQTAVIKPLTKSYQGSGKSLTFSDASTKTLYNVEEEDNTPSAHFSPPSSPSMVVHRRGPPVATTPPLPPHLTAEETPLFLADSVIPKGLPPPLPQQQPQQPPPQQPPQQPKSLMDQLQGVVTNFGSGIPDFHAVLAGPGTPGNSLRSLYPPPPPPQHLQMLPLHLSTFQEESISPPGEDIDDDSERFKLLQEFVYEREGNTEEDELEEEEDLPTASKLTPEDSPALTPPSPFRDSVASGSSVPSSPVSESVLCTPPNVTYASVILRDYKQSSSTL

[2] = tested on: mGlu1 construct not given; experiment: Fura-2 Ca2+ imaging in HEK293 cells, source data Suppl Fig1, right group (c18-c26); construct not given; type: cell-based, rat; details: single-cell values, cells #15-#20; right group of third block
Description: (§1) Supplement 41467_2022_30828_MOESM6_ESM.zip/Ojima et al_source data_Suppl Fig.xlsx, sheet "Suppl Fig1" | column: Glu; NiCl2; CuCl2; ZnCl2; CdCl2; Na2PdCl2; Pd(bpy)

mGlu1 A59H/A265H mutant [3] = target: T2, mGlu1 A59H/A265H mutant (Rattus norvegicus, UniProt P23385, A265H/A59H); experiment: Fura-2 Ca2+ imaging in HEK293 cells expressing mGlu1 A59H/A265H; type: cell-based; details: single-cell values
T2 construct: expressed in transfected cells; host or cells: HEK293
T2 sequence (P23385 19-1199 A59H/A265H): as the sequence (P23385 19-1199 A59H/N264H) above, with H246N, A247H counted along it

[4] = tested on: mGlu1 construct not given; experiment: Fura-2 Ca2+ imaging in HEK293 cells, source data Suppl Fig1, middle group (c9-c17); construct not given; type: cell-based, rat; details: single-cell values, cells #15-#20; middle group of third block
Description: as §1

WT mGlu1 = target: T3, WT mGlu1 (Rattus norvegicus, UniProt P23385); type: cell-based; note: test concentration or dose not given here
T3 construct: expressed in transfected cells; host or cells: HEK293
T3 sequence (P23385 19-1199): as the sequence (P23385 19-1199 A59H/N264H) above, with H41A, H246N counted along it

mGlu1 A59H/G266H mutant [5] = target: T4, mGlu1 A59H/G266H mutant (Rattus norvegicus, UniProt P23385, A59H/G266H); experiment: Fura-2 Ca2+ imaging in HEK293 cells expressing mGlu1 A59H/G266H; type: cell-based; details: Fig.1e; for Ca2+ response (delta ratio), A59H/G266H: test concentration or dose not given here
T4 construct: expressed in transfected cells; host or cells: HEK293
T4 sequence (P23385 19-1199 A59H/G266H): as the sequence (P23385 19-1199 A59H/N264H) above, with H246N, G248H counted along it

mGlu1 P58H/N264H mutant = target: T5, mGlu1 P58H/N264H mutant (Rattus norvegicus, UniProt P23385, N264H/P58H); experiment: Fura-2 Ca2+ imaging in HEK293 cells expressing mGlu1 P58H/N264H; type: cell-based
T5 construct: expressed in transfected cells; host or cells: HEK293
T5 sequence (P23385 19-1199 P58H/N264H): as the sequence (P23385 19-1199 A59H/N264H) above, with P40H, H41A counted along it

[6] = tested on: HEK293 cells, vector control; experiment: Fura-2 Ca2+ imaging in HEK293 cells transfected with control vector (Vec); type: cell-based; details: Fig.1e; for Ca2+ response of individual cells (source data Suppl Fig1), Vec: test concentration or dose not given here
Description: Supplement 41467_2022_30828_MOESM6_ESM.zip/Ojima et al_source data_Main Figure.xlsx, sheet "Fig.1e" | column: Vec

mGlu1 A59H/G266H mutant [7] = target: T4, mGlu1 A59H/G266H mutant; experiment: Fura-2 Ca2+ imaging in HEK293 cells expressing mGlu1 A59H/G266H; type: cell-based; details: single-cell values
[8] = tested on: mGlu1 construct not given; experiment: Fura-2 Ca2+ imaging in HEK293 cells, source data Suppl Fig1, left group (c0-c8); construct not given; type: cell-based, rat; details: single-cell values, cells #15-#20; left group of third block
Description: as §1

mGlu1 E60H/N264H mutant = target: T6, mGlu1 E60H/N264H mutant (Rattus norvegicus, UniProt P23385, E60H/N264H); experiment: Fura-2 Ca2+ imaging in HEK293 cells expressing mGlu1 E60H/N264H; type: cell-based
T6 construct: expressed in transfected cells; host or cells: HEK293
T6 sequence (P23385 19-1199 E60H/N264H): as the sequence (P23385 19-1199 A59H/N264H) above, with H41A, E42H counted along it

mGlu1 P57H/N264H mutant = target: T7, mGlu1 P57H/N264H mutant (Rattus norvegicus, UniProt P23385, N264H/P57H); experiment: Fura-2 Ca2+ imaging in HEK293 cells expressing mGlu1 P57H/N264H; type: cell-based
T7 construct: expressed in transfected cells; host or cells: HEK293
T7 sequence (P23385 19-1199 P57H/N264H): as the sequence (P23385 19-1199 A59H/N264H) above, with P39H, H41A counted along it

mGlu1 A59H/A265H mutant [9] = target: T2, mGlu1 A59H/A265H mutant; experiment: Fura-2 Ca2+ imaging in HEK293 cells expressing mGlu1 A59H/A265H; type: cell-based; details: Fig.1e
mGlu1 K61H/N264H mutant = target: T8, mGlu1 K61H/N264H mutant (Rattus norvegicus, UniProt P23385, K61H/N264H); experiment: Fura-2 Ca2+ imaging in HEK293 cells expressing mGlu1 K61H/N264H; type: cell-based
T8 construct: expressed in transfected cells; host or cells: HEK293
T8 sequence (P23385 19-1199 K61H/N264H): as the sequence (P23385 19-1199 A59H/N264H) above, with H41A, K43H counted along it

With `[Cl-].[Cl-].[Zn+2]` [ZnCl2] the “Ca2+ response of individual cells (source data Suppl Fig1), Vec” value [1] was -0.02208 and -0.02062 and -0.01588 and -0.01264 and 0.0006769 and -0.01746 and -1.54E-05 and -0.004454 and -0.02104 and -0.008908 and -0.02662 and 0.006915 and 0.02477 and 0.001469 and -0.01177 and -0.03347 and -0.02945 and -0.01742 and 0.01306 and -0.02001, the “Ca2+ response (delta ratio), A59H/N264H” value (mGlu1 A59H/N264H mutant; Fig.1e) was 0.00725 and the “Ca2+ response of individual cells (source data Suppl Fig1), A59H/N264H” value (mGlu1 A59H/N264H mutant; single-cell values #1-#20, A59H/N264H) was -0.01136 and 0.3757 and -0.01768 and -0.004631 and 0.0006077 and -0.008377 and -0.02044 and 0.005169 and -0.005323 and -0.01275 and -0.1876 and -0.01388 and 0.06164 and -0.009792 and -0.01495 and -0.03905 and -8.46E-05 and 0.03053 and 0.01748 and -0.0002154. For the same compound, the “Ca2+ response of individual cells (source data, sheet Suppl Fig1)” value [2] was -0.02524 and -0.001377 and -0.01992 and 0.004231 and -0.03185 and -0.008431, the “Ca2+ response of individual cells (source data Suppl Fig1), A59H/A265H” value (mGlu1 A59H/A265H mutant [3]) was 0.02775 and 0.01526 and -0.01 and -0.0009538 and -0.04594 and 0.01742 and 0.01817 and 0.02166 and -0.009515 and -0.04688 and 0.04091 and -0.03576 and 0.04018 and -0.001815 and the “Ca2+ response of individual cells (source data, sheet Suppl Fig1)” value [4] was -0.0199 and 0.02527 and 0.05882 and -0.05132 and 0.1351 and 0.01718. The “Ca2+ response (delta ratio), WT” value (WT mGlu1; Fig.1e) was 0.00492, the “Ca2+ response of individual cells (source data Suppl Fig1), WT” value (WT mGlu1; single-cell values #1-#20, WT) was -0.0004923 and -0.006346 and -0.007608 and 0.01052 and -0.003585 and 0.007785 and 0.05315 and -0.005223 and -0.002885 and -0.002892 and -0.004792 and -0.003569 and 0.002877 and -0.04019 and -0.002708 and -0.06293 and -0.001754 and 0.176 and -0.006623 and -0.0003538 and the “Ca2+ response (delta ratio), A59H/G266H” value (mGlu1 A59H/G266H mutant [5]) was -0.01208. The “Ca2+ response (delta ratio), P58H/N264H” value (mGlu1 P58H/N264H mutant; Fig.1e) was -0.00161, the “Ca2+ response of individual cells (source data Suppl Fig1), P58H/N264H” value (mGlu1 P58H/N264H mutant; single-cell values #1-#20, P58H/N264H) was -0.01858 and -0.04214 and -0.01035 and -0.0081 and -0.006638 and 0.08488 and -0.007315 and -0.007238 and -0.01048 and -0.008431 and -0.001785 and 0.004277 and -0.0127 and -0.01994 and 0.003692 and 0.002931 and 0.009408 and 0.02135 and 0.0149 and -0.01995 and the “Ca2+ response (delta ratio), Vec” value [6] was -0.01075. For the same compound, the “Ca2+ response of individual cells (source data Suppl Fig1), A59H/G266H” value (mGlu1 A59H/G266H mutant [7]) was -0.005723 and -0.01571 and -0.007938 and -0.01115 and -0.002308 and 0.008723 and -0.07331 and -0.0327 and -0.004923 and 0.01074 and -0.0004923 and -0.02615 and -0.03942 and 0.04141, the “Ca2+ response of individual cells (source data, sheet Suppl Fig1)” value [8] was -0.009 and -0.001631 and -0.01245 and -0.02388 and -0.01824 and -0.008531 and the “Ca2+ response (delta ratio), E60H/N264H” value (mGlu1 E60H/N264H mutant; Fig.1e) was -0.009416. For the same compound, the “Ca2+ response of individual cells (source data Suppl Fig1), E60H/N264H” value (mGlu1 E60H/N264H mutant; single-cell values #1-#20, E60H/N264H) was -0.005892 and -0.03255 and -0.003646 and -0.02008 and -0.003615 and 0.05645 and 0.08788 and -0.01442 and -0.01449 and -0.04369 and -0.008223 and -0.02082 and -0.01922 and -0.01408 and -0.01929 and -0.02112 and -0.02071 and -0.02984 and -0.03302 and -0.007923, the “Ca2+ response (delta ratio), P57H/N264H” value (mGlu1 P57H/N264H mutant; Fig.1e) was -0.002972 and the “Ca2+ response of individual cells (source data Suppl Fig1), P57H/N264H” value (mGlu1 P57H/N264H mutant; single-cell values #1-#20, P57H/N264H) was -0.0004538 and -0.005931 and -0.01735 and 0.02302 and 0.0025 and -0.02347 and -0.004954 and -0.01065 (2×) and 0.01802 and -0.01439 and 0.007646 and -0.01182 and 0.0001154 and -0.0004462 and -0.009846 and 0.01085 and 0.0122 and -0.009315 and -0.01449. The “Ca2+ response (delta ratio), A59H/A265H” value (mGlu1 A59H/A265H mutant [9]) was 0.009782, the “Ca2+ response (delta ratio), K61H/N264H” value (mGlu1 K61H/N264H mutant; Fig.1e) was 0.01018 and the “Ca2+ response of individual cells (source data Suppl Fig1), K61H/N264H” value (mGlu1 K61H/N264H mutant; single-cell values, K61H/N264H) was 0.0106 and 0.02204 and -0.0158 and -0.01138 and -0.0001308 and -0.01253 and -0.01344 and 0.3114 and -0.05129 and -0.02739 and -0.01424 and -0.005346 and 0.09999 and -0.01502.
